Entries after “also recorded” stand apart in the source; their conditions may differ.
What was measured:
[1] = system: GA activity in SKBR3 cells; test: GA activity in mitochondrial fractions; assay type: cell-based, human; settings: 2 μM
Method: (§1) 100%=620 moles of glutamine hydrolyzed per minute per mole of enzyme. Data represent the average of 3 experiments (±s.d.). […] Following precipitation of the beads and re-suspension, the samples are analyzed by Western blotting with anti-V5 antibody. […] Data represent the average of 3 experiments (±s.d.). […] Data represent the average of 3 experiments (±s.d.). […] Data represent the average of 3 experiments (±s.d.). FIG. 3E NIH 3T3 cells transiently expressing Dbl are assayed for focus formation in the presence of 10 μM 968 alone or together with […] dimethyl α-ketoglutarate. […] 100%=680 nM glutamine hydrolyzed per minute per 10^5 cells. Data are the average of 3 experiments (=s.d.). […] 100%=750 nM glutamine hydrolyzed per minute per 10^5 cells. Data represent the average of 3 experiments (±s.d.).
(§2) FIGS. 4A-E illustrate the role of glutaminase C activity in cellular transformation. […] Data represent the average of 3 experiments (±s.d.). […] Data represent the average of 3 experiments (±s.d.). […] 100% represents the activity measured in untreated Dbl-transformed cells. The data represent the average of 2 experiments. […] 100% represents the activity measured in untreated SKBR3 cells. The data represent the average of 2 experiments. […] Data represent the average of 3 experiments (±s.d.).
FIGS. 11A-E illustrate the effects of different treatments on GA activity. […] The addition of Pi stimulated the GA activity in control 3T3 cells, Dbl-expressing cells, and Cdc42(F28L)-expressing cells by ˜6-fold, 2-fold, and 3-fold, respectively. 100% represents the Pi-stimulated activity measured for Dbl-transformed cells that are not treated with 968. Data is the average of 3 experiments (±s.d.). […] The addition of Pi stimulated the GA activity of HMECs, MDA-MB231 cells, and SKBR3 cells by ˜5-fold, 2-fold, and 1.4-fold, respectively. […] The data are plotted as the percentage of GA activity measured for untreated SKBR3 cells and represent the average of 2 experiments. […] 100% represents the P1-stimulated activity measured for untreateDbl-transformed cells. […]

[2] = system: GA activity in Dbl- and Cdc42(F28L)-expressing NIH 3T3 cells; test: GA activity in mitochondrial fractions of transformed fibroblasts; assay type: cell-based; settings: Dbl-transformed cells, 2 μM
Method: as §1, §2
FIGS. 11A-E illustrate the effects of different treatments on GA activity. […] The addition of Pi stimulated the GA activity in control 3T3 cells, Dbl-expressing cells, and Cdc42(F28L)-expressing cells by ˜6-fold, 2-fold, and 3-fold, respectively. 100% represents the Pi-stimulated activity measured for Dbl-transformed cells that are not treated with 968. Data is the average of 3 experiments (±s.d.). […] The addition of Pi stimulated the GA activity of HMECs, MDA-MB231 cells, and SKBR3 cells by ˜5-fold, 2-fold, and 1.4-fold, respectively. 100% represents the Pi-stimulated activity for SKBR3 cells that were not treated with 968. Data are the average of 3 experiments (±s.d.). […] Mitochondrial fractions are prepared from equal numbers of cells and assayed for GA activity in the presence or absence of 133 mM Pi. The data are plotted as the percentage of GA activity measured for untreated SKBR3 cells and represent the average of 2 experiments. […] 100% represents the P1-stimulated activity measured for untreateDbl-transformed cells. The data represent the average of 2 experiments. […] 100% represents the Pi-stimulated activity for untreated SKBR3 cells. The data represent the average of 2 experiments.
Mitochondrial preparations were obtained using the mitochondria isolation kit from QIAGEN (Cat #37612). A suspension containing 2×10^7 cells was transferred into a 50 ml conical tube and centrifuged at 500×g for 10 minutes at 4° C. […]

[3] = system: NIH 3T3 cells transfected with oncogenic Dbl; test: Dbl-induced cellular transformation (focus-forming assays, growth in low serum, soft agar); assay type: cell-based; settings: focus formation / growth in low serum
Method: FIGS. 1A-E illustrate that the small molecule 968 inhibiting cellular transformation. […] Cells were fixed and stained with crystal violet for counting of foci. Right: 968 was serially diluted (10, 5, 2.5, and 1.25 μM) and evaluated for its ability to inhibit focus formation. […] After 6 days, the cells are counted. 100% represents the number of Dbl-transformed cells counted in the absence of 968 (27.5×10^4 cells). Data represent the average of 3 experiments (±s.d.). […] At the indicated times, the cells are counted. Data represent the average of 3 experiments (±s.d.).
FIGS. 2A-G illustrate effects of 968 on the transforming activity of constitutively active Rho GTPases and human breast cancer cells. […] Cells are scored after 14 days and plotted as the percentage of the total number of colonies greater than […] in diameter. Data represent the average of 3 experiments (±s.d.). […] Data represent the average of 3 experiments (±s.d.). […] Data represent the average of 3 experiments (±s.d.). […] After 24 hours at 37° C. the migratory cells are fixed, stained with GIEMSA, and counted. Data represent the average of 3 experiments (±s.d.). […] Data represent the average of 3 experiments (±s.d.). […] Data represent the average of 3 experiments (±s.d.). […] Data represent the average of 3 experiments (±s.d.).
FIGS. 5A-C illustrate comparative abilities of 968 and other benzo[a]phenanthrldinones to inhibit the transforming activity of oncogenic Dbl and H-Ras. […] Histograms show the relative levels of Dbl-induced focus formation for the different treatments, compared to Dbl-induced focus formation measured in the presence of DMSO (i.e. solvent control). Data represent the average of 3 experiments (mean±s.d.). […] Histograms show the relative levels of Ras(G12V)-induced focus formation measured for the different treatments, compared to Ras(G12V)-induced focus formation measured in the presence of DMSO (solvent control). Data represent the average of 3 experiments (mean±s.d.). FIG. 5C NIH 3T3 cells stably expressing H-Ras(G12V) that are cultured in DMEM supplemented with 1% calf serum, with the indicated amounts of 968. After 6 days, cells are trypsinized and counted. 100% represents the number of cells counted in the absence of 968, i.e. 26×10^4 cells. Data represent the average of 3 experiments (mean±s.d.).

[4] = target: T1, E. coli-expressed mouse ortholog of human GAC (Mus musculus, UniProt D3Z7P3); test: Recombinant glutaminase activity assay; assay type: biochemical
T1 construct: A plasmid encoding mouse GAC (residues 128-603) was cloned into the pET28a vector; His-tag (N, cleaved yes); made in house; host or cells: E. coli (pET28a)
T1 sequence (D3Z7P3 128-603 isoform D3Z7P3-2): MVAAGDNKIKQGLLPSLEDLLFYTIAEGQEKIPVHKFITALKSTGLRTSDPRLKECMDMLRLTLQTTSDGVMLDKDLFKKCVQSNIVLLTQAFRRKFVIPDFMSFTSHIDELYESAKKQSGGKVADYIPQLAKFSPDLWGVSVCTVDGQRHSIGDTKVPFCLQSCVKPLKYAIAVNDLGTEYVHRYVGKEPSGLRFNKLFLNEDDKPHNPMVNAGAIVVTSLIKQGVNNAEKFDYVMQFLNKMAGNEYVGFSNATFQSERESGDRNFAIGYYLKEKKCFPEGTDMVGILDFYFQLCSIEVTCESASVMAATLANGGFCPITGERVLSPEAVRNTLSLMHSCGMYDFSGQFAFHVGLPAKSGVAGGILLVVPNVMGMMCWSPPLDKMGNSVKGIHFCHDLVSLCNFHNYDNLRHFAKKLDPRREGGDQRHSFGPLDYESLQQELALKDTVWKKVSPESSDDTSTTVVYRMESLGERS
Method: as §1
The activity of the E. coli-expressed recombinant mouse ortholog of human GAC are assayed in the presence of 0 (●), 10 (∇) or 20 (▪) μM 968 and inorganic phosphate in the form of dipotassium hydrogen phosphate. […] The data are plotted as GA activity as function of varying concentrations of glutamine or inorganic phosphate. The data are the average of 3 experiments and are plotted as mean±SEM.
Glutaminase activity assays were performed on recombinant enzyme as previously described (Kenny et al., “Bacterial Expression, Purification and Characterization of Rat Kidney-Type Mitochondrial Glutaminasc,” Protein Expr. Purif 31:140-148 (2003), which is hereby incorporated by reference in its entirety). A plasmid encoding mouse GAC (residues 128-603) was cloned into the pET28a vector and the protein was expressed with an N-terminal histidine (His)-tag. The tag was cleaved using thrombin and the protein was further purified by anion-exchange and gel-filtration chromatography. […] The reaction mixture was incubated at room temperature for 45 minutes and the absorbance at 340 nm was recorded for each sample against a water blank. The absorbance of the sample with just the cocktail mixture was subtracted from each reading to calculate the activity of the enzyme.

[5] = target: T2, V5-tagged GAC from Dbl-transformed NIH 3T3 cells (Mus musculus, UniProt D3Z7P3); test: GA activity of immunoprecipitated V5-GAC; assay type: cell-based; settings: GAC isolated from Dbl cells, dephosphorylation conditions
T2 construct: expressed in transfected cells; host or cells: NIH 3T3 cells stably expressing oncogenic Dbl
T2 sequence (D3Z7P3 55-603 isoform D3Z7P3-2 limits assumed): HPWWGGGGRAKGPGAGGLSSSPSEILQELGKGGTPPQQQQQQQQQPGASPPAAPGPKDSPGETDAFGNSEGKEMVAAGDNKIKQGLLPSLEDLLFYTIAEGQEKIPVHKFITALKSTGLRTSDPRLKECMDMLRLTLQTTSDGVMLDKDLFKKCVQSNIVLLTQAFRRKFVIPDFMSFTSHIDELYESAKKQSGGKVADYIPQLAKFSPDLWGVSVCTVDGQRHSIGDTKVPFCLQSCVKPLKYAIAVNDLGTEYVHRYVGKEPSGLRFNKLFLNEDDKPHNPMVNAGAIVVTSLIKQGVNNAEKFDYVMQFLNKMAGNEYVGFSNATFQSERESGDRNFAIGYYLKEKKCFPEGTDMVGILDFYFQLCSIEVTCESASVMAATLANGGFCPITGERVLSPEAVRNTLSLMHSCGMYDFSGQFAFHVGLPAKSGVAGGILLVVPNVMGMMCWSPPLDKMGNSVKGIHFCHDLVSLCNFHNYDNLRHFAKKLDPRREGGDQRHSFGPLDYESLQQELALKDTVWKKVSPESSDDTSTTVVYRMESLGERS
From the text: as §2
NIH 3T3 cells or NIH 3T3 cells stably expressing the Dbl oncogene, were transiently transfected with DNA encoding a V5-tagged GAC. The cells were then harvested and the ectopically expressed GAC was isolated by immunoprecipitation via the V5 tag. The VS-GAC obtained from one of the Dbl samples was additionally treated with alkaline phosphtase under dephosphorylation conditions. The samples were then assayed for glutaminase activity in the absence of phosphate (top panel) and the relative expression levels of VS-GAC was determined by Western blotting using an anit-V5 antibody (bottom panel).
NIH 3T3 cells stably expressing oncogenic Dbl were transiently transfected with DNA encoding VS-tagged GAC, and cells were treated with either 968 or BA-968 ([…]) as indicated for 48 hours. The cells were then harvested and the ectopically expressed GAC was isolated by immunoprecipitation via the V5 tag. The samples were then assayed for glutaminase activity in the absence of phosphate (top panel) and the relative expression levels of VS-GAC was determined by Western blotting using an anti-V5 antibody (bottom panel).

`Cc1ccc(S(=O)(=O)/C=C/C#N)cc1` [BAY 11-7082, reference compound] was tested, and the “basal GA activity” value [1] was “significantly reduces”, the “direct stimulation of the enzyme by phosphate” value [1] was “little or no effect” and the “direct stimulation of the enzyme by phosphate” value [2] was “little or no effect”. The “basal GA activity” value ([2]; 2 days) was “significantly reduces”.
With `CC1(C)CC(=O)C2=C(C1)c1c(ccc3ccccc13)NC2c1cccc(Br)c1` (centres unmarked) [Compound 335] the “inhibition of Dbl-induced transformation” value [3] was “little or no inhibition; also recorded: less effective” and the “inhibition of enzymatic activity of purified GAC” value [4] was “little ability to inhibit enzyme activity”.
`CN(C)c1ccc(C2Nc3ccc4ccccc4c3C3=C2C(=O)CC(C)(C)C3)cc1` (centres unmarked) [Compound 384] was tested, and the “inhibition of Dbl-induced transformation” value [3] was “little or no inhibition”.
In the case of “alkaline phosphatase [reference compound]”, the “reduction of basal glutaminase (phosphate independent) activity” value [5] is reported as 75%.

From patent US10987317B2, “Inhibition of glutaminase C” (Cornell University, priority 2009, dated 2021)
